Data as given in ChEMBL document CHEMBL5528082 (J Med Chem, 2024).
Converted amounts (≈) assume the structure as drawn.

Experiments:
[1] = test system: Staphylococcus aureus; test: Antibacterial activity against Staphylococcus aureus ATCC 25923 incubated for 24 hrs by CLSI based broth microdilution assay; type: functional
[2] = test system: Staphylococcus aureus; test: Antibacterial activity against TMP-resistant Staphylococcus aureus BHKS 723 incubated for 24 hrs by CLSI based broth microdilution assay; type: functional
[3] = Cytotoxicity against human NCM460 cells assessed as inhibition rate of cell growth at 100 uM incubated for 24 hrs by CCK8 assay relative to control; type: toxicity, cell-based
[4] = test system: Staphylococcus aureus; test: Antibacterial activity against TMP-resistant Staphylococcus aureus BHKS 721 incubated for 24 hrs by CLSI based broth microdilution assay; type: functional
[5] = test system: Dihydrofolate reductase (Staphylococcus aureus); conditions: dose 100.0 nM
[6] = Cytotoxicity against HEK293 cells assessed as inhibition rate of cell growth at 100 uM incubated for 24 hrs by CCK8 assay relative to control; type: toxicity, cell-based; conditions: human
[7] = test system: Staphylococcus aureus; test: Antibacterial activity against Staphylococcus aureus USA 300 incubated for 24 hrs by CLSI based broth microdilution assay; type: functional
[8] = test system: Staphylococcus aureus; test: Antibacterial activity against TMP-resistant Staphylococcus aureus BHKS 227 incubated for 24 hrs by CLSI based broth microdilution assay; type: functional
[9] = target: Dihydrofolate reductase (Staphylococcus aureus, UniProt P0A017); test: Inhibition of Staphylococcus aureus DHFR expressed in Escherichia coli BL21 (DE3) using DHF as substrate preincubated for 10 mins followed by substrate addition measured for 10 mins in presence of NADPH by spectrophotometry
Dihydrofolate reductase, sequence (P0A017 whole entry): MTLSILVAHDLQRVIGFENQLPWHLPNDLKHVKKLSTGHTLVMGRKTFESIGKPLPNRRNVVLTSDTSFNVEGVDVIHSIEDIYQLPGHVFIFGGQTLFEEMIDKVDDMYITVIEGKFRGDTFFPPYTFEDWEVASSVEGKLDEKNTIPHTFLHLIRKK

SMILES	MIC [1] [µg/mL]	MIC [2] [µg/mL]	inhibition at 24 h, 100 µM [3] [%]	MIC [4] [µg/mL]	inhibition [5] [%]	inhibition at 24 h, 100 µM [6] [%]	MIC [7] [µg/mL]	MIC [8] [µg/mL]	IC50 [9] [nM]
COc1cc(C(C)C)c(Oc2cnc(N)nc2N)cc1-c1ccccc1Cl	4 (≈ 10.4 µM)	32 (≈ 83.1 µM)	29	32 (≈ 83.1 µM)	74.3	37.8	4 (≈ 10.4 µM)	16 (≈ 41.6 µM)	–
COc1cc(C(C)C)c(Oc2cnc(N)nc2N)cc1-c1ccc2c(c1)OCCO2	0.5 (≈ 1.22 µM)	16 (≈ 39.2 µM)	64.7	16 (≈ 39.2 µM)	27.2	19.6	0.25 (≈ 0.612 µM)	4 (≈ 9.79 µM)	–
COc1cc(Cc2cnc(N)nc2N)cc(OC)c1OC [TRIMETHOPRIM]	0.5 (≈ 1.72 µM)	16 (≈ 55.1 µM)	8.06	16 (≈ 55.1 µM)	–	2.93	0.5 (≈ 1.72 µM)	32 (≈ 110 µM)	–
CC(C)c1cc(OCC2CCCCC2)c(I)cc1Oc1cnc(N)nc1N	0.5 (≈ 1.04 µM)	> 32	65	32 (≈ 66.3 µM)	59.8	36.7	0.5 (≈ 1.04 µM)	> 32	–
COc1cc(C(C)C)c(Oc2cnc(N)nc2N)cc1C	1 (≈ 3.47 µM)	32 (≈ 111 µM)	57.3	16 (≈ 55.5 µM)	65.9	15.6	1 (≈ 3.47 µM)	4 (≈ 13.9 µM)	–
COc1cc(C(C)C)c(Oc2cnc(N)nc2N)cc1-c1ccc(O)cc1	0.125 (≈ 0.341 µM)	8 (≈ 21.8 µM)	53.1	1 (≈ 2.73 µM)	72.3	22.9	0.063 (≈ 0.172 µM)	0.5 (≈ 1.36 µM)	–
CCC(C)Oc1cc(C(C)C)c(Oc2cnc(N)nc2N)cc1I (configuration not stated)	0.016 (≈ 0.0362 µM)	4 (≈ 9.04 µM)	70.7	4 (≈ 9.04 µM)	50.8	44.6	0.016 (≈ 0.0362 µM)	1 (≈ 2.26 µM)	–
COc1cc(C(C)C)c(Oc2cnc(N)nc2N)cc1-c1cc(C)cc(C)c1	0.5 (≈ 1.32 µM)	16 (≈ 42.3 µM)	68.8	8 (≈ 21.1 µM)	64.6	29.7	0.5 (≈ 1.32 µM)	2 (≈ 5.28 µM)	–
COc1cc(C(C)C)c(Oc2cnc(N)nc2N)cc1-c1ccc(Cl)c(Cl)c1	0.5 (≈ 1.19 µM)	8 (≈ 19.1 µM)	34.1	8 (≈ 19.1 µM)	60.8	41	3 (≈ 7.15 µM)	2 (≈ 4.77 µM)	–
COc1cc(C(C)C)c(Oc2cnc(N)nc2N)cc1-c1ccc(C(F)(F)F)c(Cl)c1	1 (≈ 2.21 µM)	4 (≈ 8.83 µM)	41.9	4 (≈ 8.83 µM)	65.7	42.1	2 (≈ 4.42 µM)	4 (≈ 8.83 µM)	–
CC(C)c1cc(O)c(I)cc1Oc1cnc(N)nc1N	0.125 (≈ 0.324 µM)	4 (≈ 10.4 µM)	3	4 (≈ 10.4 µM)	61.7	30.1	0.125 (≈ 0.324 µM)	0.5 (≈ 1.29 µM)	–
CC(C)c1cc(OCC2CC2)c(-c2cc(Cl)cc(Cl)c2)cc1Oc1cnc(N)nc1N	0.5 (≈ 1.09 µM)	4 (≈ 8.71 µM)	35.8	2 (≈ 4.35 µM)	89.2	27.5	0.5 (≈ 1.09 µM)	2 (≈ 4.35 µM)	–
CCCC(C)Oc1cc(C(C)C)c(Oc2cnc(N)nc2N)cc1I (configuration not stated)	0.063 (≈ 0.138 µM)	4 (≈ 8.77 µM)	11.5	4 (≈ 8.77 µM)	31.7	55.6	0.063 (≈ 0.138 µM)	2 (≈ 4.38 µM)	–
CCCCOc1cc(C(C)C)c(Oc2cnc(N)nc2N)cc1-c1ccc(C(C)C)cc1	1 (≈ 2.3 µM)	2 (≈ 4.6 µM)	40.9	4 (≈ 9.2 µM)	64	46.6	2 (≈ 4.6 µM)	8 (≈ 18.4 µM)	–
COc1cc(C(C)C)c(Oc2cnc(N)nc2N)cc1-c1ccncc1	1 (≈ 2.85 µM)	32 (≈ 91.1 µM)	6.02	> 32	37.2	2.09	1 (≈ 2.85 µM)	4 (≈ 11.4 µM)	–
CCCCCCOc1cc(C(C)C)c(Oc2cnc(N)nc2N)cc1I	1 (≈ 2.13 µM)	4 (≈ 8.5 µM)	66	8 (≈ 17 µM)	42.9	41.5	1 (≈ 2.13 µM)	8 (≈ 17 µM)	–
COc1ccc(-c2cc(Oc3cnc(N)nc3N)c(C(C)C)cc2OC)cc1	0.25 (≈ 0.657 µM)	16 (≈ 42.1 µM)	69.5	16 (≈ 42.1 µM)	19.9	19.9	0.125 (≈ 0.329 µM)	1 (≈ 2.63 µM)	–

SMILES	MIC [1] [µg/mL]	MIC [2] [µg/mL]	inhibition at 24 h, 100 µM [3] [%]	MIC [4] [µg/mL]	inhibition [5] [%]	inhibition at 24 h, 100 µM [6] [%]	MIC [7] [µg/mL]	MIC [8] [µg/mL]	IC50 [9] [nM]
CC(C)c1cc(OCC2CC2)c(-c2ccc(OC(F)(F)F)cc2)cc1Oc1cnc(N)nc1N	0.5 (≈ 1.05 µM)	4 (≈ 8.43 µM)	31.3	2 (≈ 4.22 µM)	78.9	22.9	0.5 (≈ 1.05 µM)	4 (≈ 8.43 µM)	–
COc1cccc(OC)c1C(=O)N[C@@H]1C(=O)N2[C@@H]1SC(C)(C)[C@@H]2C(=O)O [METHICILLIN]	1 (≈ 2.63 µM)	1 (≈ 2.63 µM)	–	1 (≈ 2.63 µM)	–	–	128 (≈ 336 µM)	64 (≈ 168 µM)	–
CCc1cc(Oc2cnc(N)nc2N)c(C(C)CC)cc1OC (configuration not stated)	1 (≈ 3.16 µM)	32 (≈ 101 µM)	48.4	16 (≈ 50.6 µM)	4.32	23.2	1 (≈ 3.16 µM)	4 (≈ 12.6 µM)	–
COc1cc(OC)cc(-c2cc(Oc3cnc(N)nc3N)c(C(C)C)cc2OC)c1	2 (≈ 4.87 µM)	32 (≈ 78 µM)	66.8	32 (≈ 78 µM)	40.5	29.7	2 (≈ 4.87 µM)	8 (≈ 19.5 µM)	–
COc1cc(C(C)C)c(Oc2cnc(N)nc2N)cc1-c1cc(C(F)(F)F)cc(C(F)(F)F)c1	4 (≈ 8.22 µM)	8 (≈ 16.4 µM)	64.2	8 (≈ 16.4 µM)	> 100	38.6	8 (≈ 16.4 µM)	8 (≈ 16.4 µM)	–
CC(C)c1cc(OCCc2ccccc2)c(I)cc1Oc1cnc(N)nc1N	0.125 (≈ 0.255 µM)	4 (≈ 8.16 µM)	33.7	4 (≈ 8.16 µM)	76.4	62	0.125 (≈ 0.255 µM)	2 (≈ 4.08 µM)	–
CCCCOc1cc(C(C)C)c(Oc2cnc(N)nc2N)cc1-c1cc(Cl)cc(Cl)c1	2 (≈ 4.33 µM)	8 (≈ 17.3 µM)	42.5	8 (≈ 17.3 µM)	75	43	1 (≈ 2.17 µM)	8 (≈ 17.3 µM)	–
CCc1cc(Oc2cnc(N)nc2N)c(C(C)C)cc1OC	0.25 (≈ 0.827 µM)	16 (≈ 52.9 µM)	8.5	16 (≈ 52.9 µM)	–	38.8	0.125 (≈ 0.413 µM)	2 (≈ 6.61 µM)	24.7
COc1cc(C(C)C)c(Oc2cnc(N)nc2N)cc1-c1ccc(-c2ccccc2)cc1	0.5 (≈ 1.17 µM)	4 (≈ 9.38 µM)	66	4 (≈ 9.38 µM)	26.8	31.5	0.5 (≈ 1.17 µM)	2 (≈ 4.69 µM)	–
CC(C)CCOc1cc(C(C)C)c(Oc2cnc(N)nc2N)cc1I	0.125 (≈ 0.274 µM)	8 (≈ 17.5 µM)	35.6	8 (≈ 17.5 µM)	79.6	64	0.125 (≈ 0.274 µM)	2 (≈ 4.38 µM)	–
CCCCOc1cc(C(C)C)c(Oc2cnc(N)nc2N)cc1-c1ccc(C(F)(F)F)cc1	2 (≈ 4.34 µM)	4 (≈ 8.69 µM)	42.3	4 (≈ 8.69 µM)	90.9	40.2	4 (≈ 8.69 µM)	4 (≈ 8.69 µM)	–
COc1cc(C(C)C)c(Oc2cnc(NC(C)=O)nc2NC(C)=O)cc1I	> 32	> 32	18.2	> 32	32.6	26.7	> 32	> 32	–
COc1cc(C(C)C)c(Oc2cnc(N)nc2N)cc1-c1cccc(Cl)c1	0.063 (≈ 0.164 µM)	4 (≈ 10.4 µM)	18.8	4 (≈ 10.4 µM)	67.2	29.3	0.063 (≈ 0.164 µM)	1 (≈ 2.6 µM)	–
COc1cc(C(C)C)c(Oc2cnc(N)nc2N)cc1-c1ccccc1	0.5 (≈ 1.43 µM)	32 (≈ 91.3 µM)	74.2	32 (≈ 91.3 µM)	–	49.2	0.25 (≈ 0.713 µM)	2 (≈ 5.71 µM)	–
CC(C)c1ccc(-c2cc(Oc3cnc(N)nc3N)c(C(C)C)cc2OCC2CC2)cc1	1 (≈ 2.31 µM)	4 (≈ 9.25 µM)	30.2	2 (≈ 4.62 µM)	75.4	19.3	1 (≈ 2.31 µM)	4 (≈ 9.25 µM)	–
CCC(C)c1cc(OC)c(I)cc1Oc1cnc(N)nc1N (configuration not stated)	0.125 (≈ 0.302 µM)	16 (≈ 38.6 µM)	62.7	8 (≈ 19.3 µM)	56.3	28.5	0.125 (≈ 0.302 µM)	1 (≈ 2.41 µM)	–
CCOc1cc(C(C)C)c(Oc2cnc(N)nc2N)cc1I	0.016 (≈ 0.0386 µM)	4 (≈ 9.66 µM)	13.9	4 (≈ 9.66 µM)	42.6	57.9	0.016 (≈ 0.0386 µM)	0.25 (≈ 0.604 µM)	–
